One compound from patent US20220386591A1, “CRYOPRESERVATION COMPOSITIONS AND METHODS INCLUDING GLYCEROL ESTER COMPONENTS” (THE SECANT GROUP LLC, priority 2021, published 2022) can be followed below.

The assay concerns Jurkat E6.1 cells (ATCC #TIB-152). In words: Post-thaw viability of cells frozen immediately after addition of cryopreservative (trypan blue exclusion). The class given is cell-based. The settings on record: 10 wt % DMSO, FIG. 1. The protocol:
A glycerol ester component in the form of PGS was added to cell culture media containing Jurkat E6.1 cells (ATCC #TIB-152) at three different concentrations: 250 μg/mL (about 0.025 wt %), 500 μg/mL (about 0.05 wt %), and 1000 μg/mL (about 0.1 wt %). […] Cell culture media containing Jurkat E6.1 cells (ATCC #TIB-152) with no PGS and cell culture media containing Jurkat E6.1 cells (ATCC #TIB-152) with 10% DMSO served as controls. Cells were then immediately frozen at a rate of −1° C./min to −80° C. Once frozen, the cryopreserved cells were transferred to liquid nitrogen vapor phase storage for 72 hours. Following storage in a liquid nitrogen vapor phase, the cells were thawed and their viability was assessed through a trypan blue exclusion assay using a ThermoFisher Countess II FL automated cell counter to determine the percentage of viable cells.

For the compound `C[S+](C)[O-]` [DMSO, dimethyl sulfoxide], the “cryoprotection of viable cells post-thaw (positive control)” value is on record as “provided cryoprotection to essentially all of the viable cells”.
